Laboratory results reported in US4992581A, “Novel methods of manufacturing thromboxane A2 antagonists” (National Research Development Corporation, priority 1988, dated 1991).

What was measured:
[1] = test system: washed human platelets; assay: Analysis of partial agonism (human washed platelets); type: cell-based; conditions: 5 and 10 min. incubation
Procedure: Sixty ml of blood were drawn into 1/10 volume of CCD (100 mM Na Citrate and 136 mM glucose, pH 6.5 with HCl) and PRP prepared as described above. PRP was placed on ice for 15 min. One half of the volume of CCD was added and recentrifuged. The platelet pellet was gently resuspended in 1/2 the original volume of PRP in a 0° C. modified Tangen-Hepes-BSA buffer (145 mM NaCl, 5 mM KCl, 0.05 mM CaCl2, 0.1 mM MgCl2, 11 mM glucose, 15 mM Hepes, 1 mg/ml bovine serum albumin, pH adjusted to 7.4 with NaOH). The resuspended platelets were incubated undisturbed at 37° C. for 30 min. After incubation a platelet count was determined and adjusted to 3×10^8 cells/ml with the Tangen-Hepes-BSA buffer.
425 μl of the washed human platelet suspension was incubated in the aggregometer in the presence of 16 mM CaCl2 (50 μl) and SC-46985 for 5 and 10 min. […] (In a study similar to (a) above, aliquots of human washed platelets were incubated with various concentrations of SC-46985 and U-46619 to determine dose-related inhibition of aggregation).

[2] = test system: U-46619-induced platelet aggregation (rat platelet rich plasma); assay: Inhibition of U-46619-induced platelet aggregation in vitro in rat platelet rich plasma; type: cell-based; conditions: rat PRP
Procedure: Platelet rich plasma (PRP) was prepared from heparanized whole blood (5 units/ml) drawn from the abdominal aorta of ether anesthetized rats. PRP was prepared by centrifugation (Sorvall RC2B, DuPont, Wilmington, Del.) of the whole blood at 150×g for 10 min. Platelet poor plasma (PPP) was prepared by centrifugation at 1200×g for 20 min. Aliquots of PRP and PPP were used to standardize the aggregometer (Payton, Buffalo, N.Y., model 300B) with the recorder (Riken Denshi 2 channel recorder, Payton, model SP-H5P) for measurement of minimum and maximum light transmittance, respectively.
Platelet aggregation was measured as an increase in light transmittance. PRP (390 μl aliquot 5 μl compound vehicle) was preincubated for 1 min. at 37° C., with stirring at 900 rpm in the aggregometer. […] Amount of aggregation was measured by grids on the strip chart.
Compounds were dissolved in either ethanol (ETOH) or Na2 CO3 (0.1 M) and preincubated at the desired concentration in PRP for 1 min. at 37° C. with stirring. […] Dose response curves were generated and IC50 's calculated by linear regression.

SMILES	partial agonist activity [1]	shape change or aggregation ([1]; no U-46619)	fold more potent in aqueous solution than in ethanol ([2]; Na Carbonate vs ETOH vehicle)	IC50 ([2]; Rattus norvegicus, Platelet, vehicle ETOH)
CC(=NNC(=S)Nc1ccccc1)[C@H]1[C@@H]2CC[C@@H](C2)[C@@H]1C/C=C\CCCC(=O)O [SC-46985]	lack of partial agonist activity	no evidence of shape change or aggregation	–	–
CC(=NNC(=S)Nc1ccccc1)[C@@H]1[C@H]2CC[C@H](C2)[C@H]1C/C=C\CCCC(=O)O (relative stereo) [SC-44161, (±)7-[3α[[(Phenylamino)thioxomethyl]hydrazono]ethyl]1α,4α-bicyclo[2.2.1]hept-2β-yl]-5Z-heptenoic acid]	–	–	5-10 fold	260 nM
